One test deals with Leishmania donovani. On the set-up: method as in PMID 18703668, PMID 17922678. The note with it: cited from earlier work.
The test system of a further test is HT-29 cell line. On the set-up: method as in PMID 30715794. To be noted: cited from earlier work.
A further test concerns T. brucei. The experiment in a line: Trypanocidal activity, alamarBlue assay. Format: cell-based, Trypanosoma brucei. The note with it: for Selectivity Index (SI) T. brucei: SI = IC50 MRC-5/IC50 T. brucei; for IC50: Trypanosoma brucei, 72 h, alamarBlue, error reported as σ. The procedure: The trypanocidal activity of the compounds was assessed using the alamarBlue® assay (ThermoFisher Scientific, Waltham, MA, USA). […] Finally, cells were lysed with 50 μL per well of SDS 3%. The plate was incubated at 37 °C for an extra hour; then, the fluorescence intensity was measured with an Infinite F200 plate reader (Tecan Austria, GmbH, Grödig, Austria), exciting at 550 nm and recording the emission at 590 nm. The results are expressed as the concentration of the compound that reduces cell growth by 50% versus untreated control cells (IC50). Data are presented as the average of at least three independent measurements all conducted in triplicate.
On the technique in general: Alamar Blue is a resazurin reagent that responds to reducing activity.

A further test deals with L. major. Nature of the test: Leishmanicidal activity, MTT-based assay. To be noted: for IC50: Leishmania major, promastigotes, 72 h, MTT, error reported as σ; for Selectivity Index (SI) L. major: SI = IC50 MRC-5/IC50 L. major. It is filed as cell-based, Leishmania major. How it is done: (§1) The biological activity of the bis(indolyl)methane derivatives 2a–c were evaluated on in vitro models of parasites (T. brucei and L. major), human cancer cells (HeLa and HT-29) and human healthy cells (MRC-5). The toxicity of the BIM derivatives was determined through alamarBlue assay (for T. brucei and MRC-5) or MTT assay (for L. major), and the results are expressed as the concentration of the compound that reduces cell viability by 50% calculated through dose-response curves to give half maximal inhibitory concentration (IC50) (see Figures S7–S11).
L. major (MHOM/IL/80/Friedlin) promastigotes were cultured at 28 °C, 5% CO2 in modified RPMI-1640 medium (Invitrogen, Carlsbad, CA, USA) supplemented with 10% hiFBS [45]. Parasites were maintained in culture in their experimental growth phase (below 2 million parasites per mL for T. brucei and 10 million parasites per mL for L. major).
The leishmanicidal activity of the compounds was determined using MTT-based assay (Sigma-Aldrich, St. Louis, MO, USA). The stock solutions of the compounds were prepared in DMSO, and the final DMSO percentage in each well was adjusted to be less than 1%. A total of 4 × 10^6 parasites per mL were incubated at 28 °C in 96-well plates (50 μL/well) alone or in the presence of an increasing concentration of compounds DMSO for 72 h. A total of 10 μL of MTT (5 mg/mL) was added to each well, and parasites were incubated for 4 h at 28 °C. Finally, cells were lysed with 50 μL/well of 20% SDS. The plate was incubated at 37 °C for an extra hour; then, the absorbance was measured with the Infinite F200 plate reader (TECAN Austria, GmbH, Grödig, Austria) at a wavelength of 540 nm. The IC50 was calculated as described above. Data are presented as the average of at least three independent measurements all conducted in triplicate.
(In general: Tetrazolium assays rely on reduction of a dye to a coloured formazan, in cell work by metabolically active cells.)

For test [1], the system named is MRC-5 cell line (human lung fibroblast). The experiment in a line: Cytotoxicity in healthy cell line, alamarBlue assay. Format: cell-based. To be noted: MRC5, 72 h, error reported as σ. The procedure: as §1
MRC-5 cell line (human lung fibroblast) was grown in monolayer at 37 °C, 5% CO2 in DMEM medium (1 g/L glucose) supplemented with 10% hiFBS, 100 U/mL penicillin, […] streptomycin and 2 mM L-glutamine.
(§2) Cytotoxicity was measured in MRC-5, HeLa and HT-29 cell lines using alamarBlue® assay (ThermoFisher Scientific). The stock solutions of the compounds were prepared in DMSO, and the final DMSO percentage in each well was adjusted to be less than 1%. A total of 5 × 10^3 cells per mL (MRC-5, HeLa or HT-29 cells) were seeded in 96-well plates (100 μL/well) with 24 h of incubation time before compound addition at 37 °C, 5% CO2. Then, the compounds were added at increasing concentrations (from 0 to 100 μM), and the plates were incubated for 72 h. A total of 20 μL of resazurin solution (110 ng/mL) was added to each well, and cells were incubated for 4 h. Then, cells were lysed with 50 μL/well of 3% SDS. The plate was incubated at 37 °C for an extra hour; then, the fluorescence intensity was measured with the Infinite F200 plate reader (TECAN Austria, GmbH), exciting at 550 nm and recording the emission at 590 nm. The results are expressed as the concentration of compound that reduces cell growth by 50% versus untreated control cells (IC50). Data are presented as the average of at least three independent measurements all conducted in triplicate.

For test [2], the system named is HT-29 (human colorectal adenocarcinoma). Nature of the test: Cytotoxicity in cancer cell line, alamarBlue assay. It is filed as cell-based. To be noted: for IC50: Homo sapiens, HT-29, 72 h, alamarBlue, error reported as σ; for Selectivity Index (SI) HT-29: SI = IC50 MRC-5/IC50 HT-29. The procedure: (§3) HeLa (human cervical carcinoma) and HT-29 (human colorectal adenocarcinoma) cell lines were maintained at 37 °C, 5% CO2 in high glucose DMEM (4.5 g/L glucose) supplemented with 10% hiFBS, 100 U/mL penicillin, […] streptomycin, 2 mM L-glutamine and non-essential amino acids (1X). Cells were plated and passaged according to ATCC recommendations and were used for the experiments while in the exponential growth phase.
as §2

Test [3] has as its system HeLa (human cervical carcinoma). The experiment in a line: Cytotoxicity in cancer cell line, alamarBlue assay. Format: cell-based. The note with it: for IC50: Homo sapiens, HeLa, 72 h, alamarBlue, error reported as σ; for Selectivity Index (SI) HeLa: SI = IC50 MRC-5/IC50 HeLa. How it is done: as §3, §2

The term IC50 denotes the concentration that inhibits the measured activity by half.

As to `c1ccc2c(Cc3c[nH]c4ccccc34)c[nH]c2c1` [Arundine, 3,3-diindolylmethane], the IC50 was 1.2 µM with Leishmania donovani and > 100 µM in the test on HT-29 cell line.
On to `c1ccc(N(c2ccccc2)c2ccc(C(c3c[nH]c4ccccc34)c3c[nH]c4ccccc34)cc2)cc1` [Compound 2a], for which, in the test on T. brucei, the “Selectivity Index (SI) T. brucei” value came out at 10.50. Also, the IC50 was 3.21 ± 0.04 µM in the test on T. brucei; 3.3 ± 0.25 µM in the test with L. major; 33.7 ± 3.19 µM in test [1]; 3.93 ± 0.49 µM in test [2]; 37.5 ± 1.86 µM in test [3]. In addition, the “Selectivity Index (SI) L. major” value in the test on L. major was found to be 10.21. For the same compound, the “Selectivity Index (SI) HT-29” value in test [2] was found to be 8.57. Further, the “Selectivity Index (SI) HeLa” value in test [3] was 0.90.
With `CN(C)c1ccc(C(c2c[nH]c3ccccc23)c2c[nH]c3ccccc23)c2ccccc12` [Compound 2b], the “Selectivity Index (SI) T. brucei” value with T. brucei is on record as 5.93. Also, the concentration for half-maximal inhibition (IC50) with T. brucei is 16 ± 4.44 µM; in the test on L. major it was > 100 µM; in test [1] it was 94.9 ± 7.27 µM; in test [2], 25.4 ± 5.23 µM; in test [3] it was 89.56 ± 0.15 µM. In addition, in the test with L. major, the “Selectivity Index (SI) L. major” value was <0.95. Also, the “Selectivity Index (SI) HT-29” value in test [2] turned out to be 3.73. Besides, the “Selectivity Index (SI) HeLa” value in test [3] is 1.06.
For `Oc1cccc2ccc(C(c3c[nH]c4ccccc34)c3c[nH]c4ccccc34)nc12` [Compound 2c], the concentration for half-maximal inhibition (IC50) turned out to be 14.66 ± 0.05 µM in the test with T. brucei; 20.7 ± 1.71 µM in the test on L. major; 3.25 ± 0.29 µM in test [1]; 71.4 ± 3.99 µM in test [2]; 28.3 ± 5.01 µM in test [3]. Moreover, in test [2], the “Selectivity Index (SI) HT-29” value was found to be 0.05. For the same compound, the “Selectivity Index (SI) HeLa” value in test [3] is 0.11.

Values taken from PMC10707942, “Polyaromatic Bis(indolyl)methane Derivatives with Antiproliferative and Antiparasitic Activity” (Molecules, 2023).
